US6946447B2, “MDM2-specific antisense oligonucleotides” (Hybridon, Inc., priority 1997, dated 2005)
Where two headings read alike, the source gives them in different places.

Experiments:
JAR cells = experiment: Induction of apoptosis / cell death in JAR cells; assay type: cell-based, human; details: 400 nM, 30 h, Lipofectin
Method: JAR cells (ATCC) were grown in DMEM medium supplemented with 1% FBS according to standard cell culture techniques. Cells were then treated for 30 hours with growth medium containing 400 nM of either antisense oligonucleotide AS5 (SEQ ID NO:28) complementary to a portion of MDM2-encoding RNA or control oligonucleotide M4 (SEQ ID NO:5), and 7 μg/ml lipofectin (Gibco BRL Paisley, UK). Treated cells were then photographed using a phase contrast microscope.
JAR cells were treated for 24 hours as described in Example 6. Floating cells were harvested and chromosomal DNA was extracted according to standard techniques (Liu et al., Cell 86:147-157 (1996)). Purified DNA was then analyzed by agarose gel electrophoresis on a 2% agarose gel. Following electrophoresis the gel was stained with 0.5 μg/ml ethidium bromide.

MDM2 [1] = experiment: MDM2 protein level by immunoprecipitation/Western blot in oligonucleotide-treated cells; assay type: cell-based, human; details: JAR cells, 18 h, Lipofectin 7 μg/ml, Western blot (FIG. 2A)
MDM2 [2] = details: JAR and SJSA cells, 100-400 nM, Lipofectin; cited from earlier work
DLD-1 cells = experiment: DLD-1 cell growth by trypan blue viability staining; assay type: cell-based, human; details: 72 hr, Lipofectin
Excerpt: (§1) Chemicals and Reagents. Cell culture media and phosphate-buffered saline (PBS) were obtained from Sigma Chemical Co. (St. Louis, Mo.). Fetal bovine serum (FBS), antibodies against p53 and p21, Lipofectin, trypsin, penicillin-streptomycin, and trypan blue stain were purchased from GIBCO-BRL (Grand Island, N.Y.). The anti-human-MDM2 monoclonal antibody (Chen L. et al., Proc Natl Acad Sci USA, 95: 195-200, 1998; Chen L. et al., Mol. Med. 5: 21-34, 1999) was kindly provided by J. Chen (Moffitt Cancer Center, Tampa, Fla.). Chemotherapeutic agents adriamycin and 5-fluorouracil (5-FU) were obtained from Sigma. […] The MDM2, p53 and p21 levels in cultured cells were analyzed by using the methods described previously (earlier (Chen L. et al., Proc Natl Acad Sci USA, 95: 195-200, 1998; Chen L. et al., Mol. Med. 5: 21-34, 1999; Wang H. et al., Int J. Oncol. 15: 653-660, 1999). In brief, cell lysate containing identical amounts of total protein were fractionated by SDS-PAGE and transferred to Bio-Rad Trans-Blot nitrocellulose membranes (Bio-Rad Laboratories, Hercules, Calif., USA). The nitrocellulose membrane was then incubated with blocking buffer (PBS containing 0.1% Tween 20 and 5% non-fat milk) for 1 hr at room temperature and washed with the washing buffer (PBS containing 0. […]

LS174T cells = experiment: LS174T cell growth by trypan blue viability staining; assay type: cell-based, human; details: 72 hr, Lipofectin
Excerpt: as §1

[3] = test system: human colon cancer DLD-1 xenografts; experiment: Tumor growth in nude mice bearing DLD-1 xenografts; assay type: in vivo
[4] = mice bearing DLD-1 xenografts
[5] = test system: MDM2, p53 and p21 protein levels in LS174T cells; experiment: Western blot of MDM2, p53 and p21 in LS174T cells; assay type: cell-based, human; details: up to 500 nM, 24 hr, Lipofectin
[6] = test system: human colon cancer LS174T xenografts; experiment: Tumor growth in nude mice bearing LS174T xenografts
[7] = mice bearing LS174T xenografts
[8] = test system: MDM2, p53 and p21 protein levels in DLD-1 cells; experiment: Western blot of MDM2, p53 and p21 in DLD-1 cells; assay type: cell-based, human
Excerpt: (§2) Chemicals and Reagents. Cell culture media and phosphate-buffered saline (PBS) were obtained from Sigma Chemical Co. (St. Louis, Mo.). Fetal bovine serum (FBS), antibodies against p53 and p21, Lipofectin, trypsin, penicillin-streptomycin, and trypan blue stain were purchased from GIBCO-BRL (Grand Island, N.Y.). The anti-human-MDM2 monoclonal antibody (Chen L. et al., Proc Natl Acad Sci USA, 95: 195-200, 1998; Chen L. et al., Mol. Med. 5: 21-34, 1999) was kindly provided by J. Chen (Moffitt Cancer Center, Tampa, Fla.). Chemotherapeutic agents adriamycin and 5-fluorouracil (5-FU) were obtained from Sigma. Natural product topoisomerase I inhibitor 10-hydroxycamptothecin (HCPT) was obtained from the Midwest Co. (Beijing, China) with the purity of the drug being greater than 98% (Zhang R. et al., Cancer Chemother Pharm 41: 257-267, 1998). Cell Culture. The tumor cell lines, LS174T and DLD-1 were obtained from the American Type Culture Collection (Rockville, Md.) and cultured according to their instructions. LS 174T cells were cultured in MEM with 0.1 mM nonessential amino acids and Earle's balanced salt solution containing 10% FBS and DLD-1 cells in RPMI 1640 medium containing 10% FBS. All media included 1% penicillin/streptomycin. […] Cells were incubated with Oligos AS or ASM at various concentrations for 72 hr, in the presence of Lipofectin (7 μg/ml). […] Western Blot Analysis. The MDM2, p53 and p21 levels in cultured cells were analyzed by using the methods described previously (earlier (Chen L. et al., Proc Natl Acad Sci USA, 95: 195-200, 1998; Chen L. et al., Mol. Med. 5: 21-34, 1999; Wang H. et al., Int J. Oncol. 15: 653-660, 1999). In brief, cell lysate containing identical amounts of total protein were fractionated by SDS-PAGE and transferred to Bio-Rad Trans-Blot nitrocellulose membranes (Bio-Rad Laboratories, Hercules, Calif., USA). The nitrocellulose membrane was then incubated with blocking buffer (PBS containing 0.1% Tween 20 and 5% non-fat milk) for 1 hr at room temperature and washed with the washing buffer (PBS containing 0. 1% Tween 20) for 5 min twice. The membrane was incubated with primary (anti-MDM2, anti-p53, or anti-p21) antibody overnight at 4° C. or for 1 hr at room temperature with gentle shaking. The membrane was washed with the washing buffer for 15 min and then twice for 5 min, and then incubated with 1:5000 diluted goat anti-mouse IgG-horse radish peroxidase conjugated antibody (Bio-Rad, Hercules, Calif.) for 1 hr at room temperature. After washing as described above the protein of interest was detected by ECL reagents from Amersham (Arlington Height, Ill.). Results. LS174T Model. In vitro inhibition of MDM2 expression by Oligo AS was shown in a sequence-specific, increasing dose-dependent manner (FIG. 19). […] Control oligonucleotide, Oligo ASM had no effect on MDM2, p53 or p21 protein levels at 500 nM, the highest concentration tested in the study.
(§3) Following in vitro combination treatment of Oligos and chemotherapeutic agents HCPT, adriamycin, and 5-FU, the protein levels of MDM2, p53 and p21 were determined in DLD-1 cells. Cells were incubated with 200 nM Oligo in the presence of Lipofectin for 24 hr, followed by addition of various concentrations of chemotherapeutic agents and incubation for an additional 24 hr.

[9] = test system: MDM2, p53 and p21 protein levels in LS174T cells; experiment: Western blot of MDM2, p53 and p21 in LS174T cells; assay type: cell-based, human; details: 400 nM Oligo 24 hr
Excerpt: as §2
as §3, with “LS174T” for “DLD-1”, “400” for “200”, “for” for “for an”

[10] = day 3, oligo 20, HCPT 3, 5-FU 10 mg/kg/day
[11] = day 6, oligo 20, HCPT 3, 5-FU 10 mg/kg/day
[12] = day 9, oligo 20, HCPT 3, 5-FU 10 mg/kg/day
[13] = day 12, oligo 20, HCPT 3, 5-FU 10 mg/kg/day
[14] = day 15, oligo 20, HCPT 3, 5-FU 10 mg/kg/day

Substance: M4: mismatch control oligonucleotide of AS5 with four mismatches, 5′-GATGACTCACACCATCATGG-3′; SEQ ID NO:5 (listed as DNA, chemistry not given here) [Oligo M4]
- cell death / apoptosis morphology (JAR cells): significantly less apoptosis
- inhibition of MDM2 expression (MDM2 [1]): not observed
- decrease of MDM2 protein levels (MDM2 [2]): no effect

Substance: Oligo ASM: mismatched control of Oligo AS, 5′-UGTCACCCTTTTTCATUCAC-3′; SEQ ID NO:50 (chemistry not given here)
- effect on tumor cell growth (DLD-1 cells): no significant effect
- effect on tumor cell growth (LS174T cells): no significant effect
- effect of combination treatment on tumor growth [3]: no significant effect
- effect on in vivo tumor growth ([3]; 20 mg/kg/day): minimal effect
- Ratio (%) of % T:C with oligo to % T:C without oligo ([2]/[1] or [3]/[1]) ([3]; day 3): 82%
- Growth ratio % T:C [3, 10]: 81.5%
- Ratio (%) of % T:C with oligo to % T:C without oligo ([2]/[1] or [3]/[1]) ([3]; day 6): 88%
- Growth ratio % T:C [3, 11]: 87.5%
- Ratio (%) of % T:C with oligo to % T:C without oligo ([2]/[1] or [3]/[1]) ([3]; day 9): 70%
- Growth ratio % T:C [3, 12]: 79.3%
- Ratio (%) of % T:C with oligo to % T:C without oligo ([2]/[1] or [3]/[1]) ([3]; day 12): 66%
- Growth ratio % T:C [3, 13]: 66.4%
- Ratio (%) of % T:C with oligo to % T:C without oligo ([2]/[1] or [3]/[1]) ([3]; day 15): 79%
- Growth ratio % T:C [3, 14]: 79.3%
- Ratio (%) of % T:C with oligo to % T:C without oligo ([2]/[1] or [3]/[1]) ([3]; day 18): 81%
- Growth ratio % T:C ([3]; day 18, oligo 20, HCPT 3, 5-FU 10 mg/kg/day): 81.0%
- Ratio (%) of % T:C with oligo to % T:C without oligo ([2]/[1] or [3]/[1]) ([3]; day 21): 76%
- Growth ratio % T:C ([3]; day 21 (end of experiment), oligo 20, HCPT 3, 5-FU 10 mg/kg/day): 76.0%
- Survival Rates of Animals ([4]; day 3): 100%
- Survival Rates of Animals ([4]; day 6): 100%
- Survival Rates of Animals ([4]; day 9): 100%
- Survival Rates of Animals ([4]; day 12): 100%
- Survival Rates of Animals ([4]; day 15): 100%
- Survival Rates of Animals ([4]; day 18): 100%
- Survival Rates of Animals ([4]; day 21): 66.7%
- effect on MDM2, p53 and p21 protein levels [5]: no effect
- effect of combination treatment on tumor growth [6]: no significant effect
- xenograft pathology (tumor histology) [6]: indistinguishable histologically
- effect on in vivo tumor growth ([6]; daily ip dose 20 mg/kg): minimal effect
- Ratio (%) of % T:C with oligo to % T:C without oligo ([2]/[1] or [3]/[1]) ([6]; day 3): 99%
- Growth ratio % T:C (mean tumor mass of treated group vs saline control) [6, 10]: 98.6%
- Ratio (%) of % T:C with oligo to % T:C without oligo ([2]/[1] or [3]/[1]) ([6]; day 6): 105%
- Growth ratio % T:C (mean tumor mass of treated group vs saline control) [6, 11]: 104.9%
- Ratio (%) of % T:C with oligo to % T:C without oligo ([2]/[1] or [3]/[1]) ([6]; day 9): 70%
- Growth ratio % T:C (mean tumor mass of treated group vs saline control) [6, 12]: 69.7%
- Ratio (%) of % T:C with oligo to % T:C without oligo ([2]/[1] or [3]/[1]) ([6]; day 12): 82%
- Growth ratio % T:C (mean tumor mass of treated group vs saline control) [6, 13]: 81.5%
- Ratio (%) of % T:C with oligo to % T:C without oligo ([2]/[1] or [3]/[1]) ([6]; day 15): 79%
- Growth ratio % T:C (mean tumor mass of treated group vs saline control) [6, 14]: 79.4%
- Ratio (%) of % T:C with oligo to % T:C without oligo ([2]/[1] or [3]/[1]) ([6]; day 18): 72%
- Growth ratio % T:C (mean tumor mass of treated group vs saline control) ([6]; day 18 (end of experiment), oligo 20, HCPT 3, 5-FU 10 mg/kg/day): 73.3%
- Ratio (%) of % T:C with oligo to % T:C without oligo ([2]/[1] or [3]/[1]) ([6]; day 18, listed as ASM): 73%
- Survival Rates of Animals ([7]; day 3): 100%
- Survival Rates of Animals ([7]; day 6): 100%
- Survival Rates of Animals ([7]; day 9): 100%
- Survival Rates of Animals ([7]; day 12): 100%
- Survival Rates of Animals ([7]; day 15): 100%
- Survival Rates of Animals ([7]; day 18): 100%
- effect on MDM2, p53 or p21 protein levels [8]: no effect
- MDM2, p53 and p21 protein levels, oligo pre-treatment then 5-FU ([8]; 200 nM Oligo 24 hr, then 5-FU 24 hr): minimal effect
- MDM2 and p21 protein levels, oligo pre-treatment then HCPT ([8]; 200 nM Oligo 24 hr, then HCPT 24 hr): minimal effect
- MDM2 and p21 protein levels, oligo pre-treatment then adriamycin ([8]; 200 nM Oligo 24 hr, then adriamycin 24 hr): minimal effect
- MDM2, p53 and p21 protein levels, oligo pre-treatment then 5-FU ([9]; then 5-FU 24 hr): minimal effect
- MDM2, p53 and p21 protein levels, oligo pre-treatment then HCPT ([9]; then HCPT 24 hr): minimal effect
- MDM2, p53 and p21 protein levels, oligo pre-treatment then adriamycin ([9]; then adriamycin 24 hr): minimal effect
